# *1 amine or outer side, *2 acyl side, *3 side chain or, on linkers, in order; H or OH if unused. Where a SMILES comes first, the peptide text is derived from it. [ ]: non-standard residue; d: D form. Phe(4-PO3H2) = N[C@@H](Cc1ccc(P(=O)(O)O)cc1)C(=O)O; Oic = O=C(O)[C@@H]1C[C@@H]2CCCC[C@@H]2N1; X1 = O=C([C@@H]1C2CCC(CC2)N1[*:1])[*:2]
# Legend:
# human thrombin [1] = biological target: T1, human thrombin (Homo sapiens, UniProt P00734); assay: inhibition of thrombin, fibrinogen as substrate; type: biochemical; settings: 20 C, fibrin measured at 405 nm
# T1 construct: human thrombin (Sigma, specific activity 3230 NIHU/mg); purchased Sigma
# Experimental: (§1) In order to evaluate in vitro the inhibitory activity of the products of the invention on human thrombin (Sigma, specific activity 3230 NIHU/mg), human fibrinogen (purified or plasmatic) (Fg) or the chromogenic substrate H-D-Phe-Pip-Arg-pNA ([…], S 2238, Kabi) were added to a given quantity of thrombin (0.7 or 2 nM) previously incubated with or without the test inhibitor (20 C, 10 min).
# (§2) In order to evaluate in vitro the selectivity of these products towards various coagulation serine proteases, the same procedure was applied to purified human plasmin (2 nM, Stago), to purified human activated factor X (2 nM, Stago), to kallikrein (2 nM, sigma), to urokinase (2 nM, sigma), to plasminogen tissue activator (t-PA; 2 nM, Stago) and to purified human activated protein C (2 nM, Stago) using, as substrate, various paranitroanilide-containing peptides. The inhibitors, enzymes and substrates are diluted in the same buffer ([…] phosphate buffer pH 7.4, containing 0.12M sodium chloride and 0.05% bovine serum albumin) and then distributed in a polystyrene microplate in a volume of 50 l.
# (§3) The fibrin formed by thrombin or the paranitroanilide liberated by the action of the serin protease is measured spectrophotometrically at 405 nm after reacting for 15 to 30 minutes at 20° C. […] The results are expressed in IC50 value: the concentration in nM which inhibits the enzymatic activity by 50%.
# human thrombin [2] = biological target: T1, human thrombin; assay: inhibition of thrombin, chromogenic substrate H-D-Phe-Pip-Arg-pNA (S 2238); type: biochemical; settings: 20 C, 405 nm
# Experimental: as §1, §2, §3
# urokinase = biological target: T2, urokinase (Homo sapiens, UniProt P00749); assay: selectivity towards coagulation serine proteases: urokinase; type: biochemical; settings: 2 nM enzyme, paranitroanilide-containing peptide substrate; read-out: IC50 with respect to urokinase
# T2 construct: purchased sigma
# Experimental: as §2, §3
# [3] = tested on: activated cephalin time (ACT), human plasma; assay: activated cephalin time (ACT) in vitro on human plasma; type: biochemical; settings: human plasma low in platelets, citrate
# Experimental: (§4) In the presence of a standard quantity of thrombin or activated cephalin, a normal plasma coagulates within a defined and constant time called thrombin time (TT) and activated cephalin time (ACT) respectively. The extension of these coagulation times by pharmacological substances reflects an anticoagulant effect.
# (§5) The in vitro effect of the products of the invention was measured on human plasma. Blood was collected by venous puncture in a tube containing citrate. After decantation (1200 g, 10 min), the plasma low in platelets is decanted so as to then carry out the coagulation tests. […] The compound of Example 1 doubles the TT at the concentration of […] and the ACT at the concentration of […].
# [4] = biological target: T3, plasminogen tissue activator (t-PA) (Homo sapiens, UniProt P00750); assay: selectivity towards coagulation serine proteases: t-PA; type: biochemical; settings: 2 nM enzyme, paranitroanilide-containing peptide substrate; read-out: IC50 with respect to t-PA
# T3 construct: purchased Stago
# T3 sequence (P00750 23-562 limits assumed, species assumed): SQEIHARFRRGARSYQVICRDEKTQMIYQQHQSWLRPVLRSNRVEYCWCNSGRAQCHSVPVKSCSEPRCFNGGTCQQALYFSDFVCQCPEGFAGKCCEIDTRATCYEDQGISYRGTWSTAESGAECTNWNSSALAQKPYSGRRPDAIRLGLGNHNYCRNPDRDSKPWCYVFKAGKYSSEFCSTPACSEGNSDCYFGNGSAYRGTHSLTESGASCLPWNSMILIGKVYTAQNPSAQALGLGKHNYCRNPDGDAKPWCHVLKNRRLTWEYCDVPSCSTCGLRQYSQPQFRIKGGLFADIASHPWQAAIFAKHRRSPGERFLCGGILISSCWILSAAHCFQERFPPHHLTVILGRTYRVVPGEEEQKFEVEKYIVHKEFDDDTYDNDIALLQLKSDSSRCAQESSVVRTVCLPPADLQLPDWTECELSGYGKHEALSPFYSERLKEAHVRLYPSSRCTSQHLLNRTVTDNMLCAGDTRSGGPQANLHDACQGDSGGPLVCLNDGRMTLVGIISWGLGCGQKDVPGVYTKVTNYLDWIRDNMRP
# Experimental: as §2, §3
# [5] = biological target: T4, purified human activated protein C (Homo sapiens, UniProt P04070); assay: selectivity towards coagulation serine proteases: activated protein C; type: biochemical; settings: 2 nM enzyme, paranitroanilide-containing peptide substrate; read-out: IC50 with respect to activated protein C
# T4 construct: purchased Stago
# T4 sequence (P04070 212-450 limits assumed): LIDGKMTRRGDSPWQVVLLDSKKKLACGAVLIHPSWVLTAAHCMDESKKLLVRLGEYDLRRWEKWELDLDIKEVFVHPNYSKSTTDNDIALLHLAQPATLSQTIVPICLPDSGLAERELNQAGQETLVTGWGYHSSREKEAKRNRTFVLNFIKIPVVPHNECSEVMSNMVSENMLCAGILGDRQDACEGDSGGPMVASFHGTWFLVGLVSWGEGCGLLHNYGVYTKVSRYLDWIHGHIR
# T4 sequence (P04070 43-197 limits assumed): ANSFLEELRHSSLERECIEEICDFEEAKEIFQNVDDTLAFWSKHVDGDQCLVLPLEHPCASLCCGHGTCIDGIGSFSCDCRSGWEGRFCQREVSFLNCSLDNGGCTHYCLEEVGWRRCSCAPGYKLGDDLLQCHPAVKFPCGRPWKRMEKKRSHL
# Experimental: as §2, §3
# [6] = biological target: T5, purified human activated factor X (Homo sapiens, UniProt P00742); assay: selectivity towards coagulation serine proteases: activated factor X; type: biochemical; settings: 2 nM enzyme, paranitroanilide-containing peptide substrate; read-out: IC50 with respect to activated factor X
# T5 construct: purchased Stago
# T5 sequence (P00742 235-488 limits assumed): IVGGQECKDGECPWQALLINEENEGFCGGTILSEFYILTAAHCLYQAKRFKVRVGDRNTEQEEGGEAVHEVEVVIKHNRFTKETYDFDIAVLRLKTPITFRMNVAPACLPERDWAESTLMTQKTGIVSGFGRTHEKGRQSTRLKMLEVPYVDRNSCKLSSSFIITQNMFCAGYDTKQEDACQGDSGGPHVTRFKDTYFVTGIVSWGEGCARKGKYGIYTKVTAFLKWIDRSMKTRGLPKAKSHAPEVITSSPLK
# T5 sequence (P00742 41-179 limits assumed): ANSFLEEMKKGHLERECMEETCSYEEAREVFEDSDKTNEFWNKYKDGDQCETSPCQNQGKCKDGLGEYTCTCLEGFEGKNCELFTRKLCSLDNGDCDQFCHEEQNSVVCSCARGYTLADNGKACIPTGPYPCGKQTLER
# Experimental: as §2, §3
# [7] = tested on: thrombin time (TT), OFA rats; assay: thrombin time (TT) ex vivo in OFA rats; settings: rat, 0.8 mg/kg i.v.
# Experimental: as §4
# (§6) The effect of the products was tested ex vivo in OFA rats anesthetized with sodium pentobarbital (60 mg/kg i.p.) The carotid artery and the jugular vein are catheterized. After installation of the catheters, 1.5 cm^3 of arterial blood are collected over citrate (0.109M). 30 minutes later, the test product is administered in a volume of 1 ml by i.v. Arterial samples (1.5 cm^3) are then collected at […], 3 min, 5 min, 15 min, 30 min and 60 min. At each collection of sample, 1.5 cm^3 of citrated physiological saline is reinjected into the animal via the carotid.
# kallikrein = assay: selectivity towards coagulation serine proteases: kallikrein; type: biochemical; settings: 2 nM enzyme, paranitroanilide-containing peptide substrate; read-out: IC50 with respect to kallikrein
# Experimental: as §2, §3
# male OFA rats = assay: venous thrombosis induced by ligation of the vena cava inferior (weight of the clot); type: in vivo; settings: rat, clot withdrawn 25 minutes after ligation
# Experimental: The test animals are anesthetized by administration of sodium pentobarbital (50 mg/kg i.p.). 15 minutes before the ligation, the animals are treated with the test products via the i.v. route. The clot is withdrawn from the vena cava 25 minutes after the ligation, it is weighed after desiccation (24 hours at 60 C.).
# [8] = tested on: activated cephalin time (ACT), OFA rats; assay: activated cephalin time (ACT) ex vivo in OFA rats; settings: rat, 0.8 mg/kg i.v.
# Experimental: as §4, §6
# purified human plasmin = biological target: T6, purified human plasmin (Homo sapiens, UniProt P00747); assay: selectivity towards coagulation serine proteases: plasmin; type: biochemical; settings: 2 nM enzyme, paranitroanilide-containing peptide substrate; read-out: IC50 with respect to plasmin
# T6 construct: purified human plasmin (2 nM, Stago); purchased Stago
# T6 sequence (P00747 581-810 limits assumed): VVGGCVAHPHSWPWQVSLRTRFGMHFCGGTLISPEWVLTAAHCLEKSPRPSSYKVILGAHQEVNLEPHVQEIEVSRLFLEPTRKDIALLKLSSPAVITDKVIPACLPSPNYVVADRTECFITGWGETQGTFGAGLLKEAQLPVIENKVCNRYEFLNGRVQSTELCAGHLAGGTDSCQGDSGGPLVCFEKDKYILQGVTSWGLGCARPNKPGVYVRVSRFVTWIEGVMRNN
# T6 sequence (P00747 97-580 limits assumed): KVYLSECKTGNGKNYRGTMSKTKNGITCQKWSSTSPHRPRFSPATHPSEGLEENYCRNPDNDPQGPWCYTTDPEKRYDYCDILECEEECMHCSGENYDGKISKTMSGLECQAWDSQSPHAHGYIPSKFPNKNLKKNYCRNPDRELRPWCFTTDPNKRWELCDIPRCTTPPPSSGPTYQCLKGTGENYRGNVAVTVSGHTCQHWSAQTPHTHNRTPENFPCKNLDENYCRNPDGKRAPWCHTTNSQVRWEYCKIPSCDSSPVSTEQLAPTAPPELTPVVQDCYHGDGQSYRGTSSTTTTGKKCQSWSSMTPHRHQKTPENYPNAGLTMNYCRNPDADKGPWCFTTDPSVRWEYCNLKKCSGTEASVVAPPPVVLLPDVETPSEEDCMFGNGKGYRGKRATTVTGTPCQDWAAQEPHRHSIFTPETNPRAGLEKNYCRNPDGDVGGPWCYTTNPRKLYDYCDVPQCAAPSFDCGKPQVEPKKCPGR
# Experimental: as §2, §3
# [9] = tested on: thrombin time (TT), human plasma; assay: thrombin time (TT) in vitro on human plasma; type: biochemical; settings: human plasma low in platelets, citrate
# Experimental: as §4, §5
compound,measurement,setting,value
"CC[C@H](C)[C@H](NC(=O)[C@@H]1C2CCC(CC2)N1C(=O)[C@H](CCC(=O)O)NC(=O)[C@H](Cc1ccccc1)NC(=O)[C@H](CC(=O)O)NC(=O)CNC(=O)[C@H](CC(N)=O)NC(=O)CNC(=O)CNC(=O)CNC(=O)CNC(=O)[C@@H]1CCCN1C(=O)[C@H](CCCNC(=N)N)NC(=O)[C@@H]1CCCN1C(=O)[C@H](N)Cc1ccccc1)C(=O)N1CCC[C@H]1C(=O)N[C@@H](CCC(=O)O)C(=O)N[C@@H](CCC(=O)O)C(=O)N[C@@H](Cc1ccc(P(=O)(O)O)cc1)C(=O)N[C@@H](CC(C)C)C(=O)N[C@H](CCC(=O)O)C(=O)O [Example 1, H-phe-Pro-Arg-Pro-(Gly)4 -Asn-Gly-Asp-Phe-Glu-Abo-Ile-Pro-(Glu)2 -Phe(pPO3 H2)-Leu-glu-OH] (H-[dF]PRPGGGGNGDFE[X1]IPEE[Phe(4-PO3H2)]L[dE]-OH)",IC50,human thrombin [1],6.1 nM
same,IC50,human thrombin [2],18 nM
"CC[C@H](C)[C@H](NC(=O)[C@@H]1C2CCC(CC2)N1C(=O)[C@H](CCC(=O)O)NC(=O)[C@H](Cc1ccccc1)NC(=O)[C@H](CC(=O)O)NC(=O)CNC(=O)[C@H](CC(N)=O)NC(=O)CNC(=O)CNC(=O)CNC(=O)CNC(=O)[C@@H]1CCCN1C(=O)[C@H](CCCNC(=N)N)NC(=O)[C@@H]1C[C@@H]2CCCC[C@@H]2N1C(=O)[C@H](N)Cc1ccccc1)C(=O)N1CCC[C@H]1C(=O)N[C@@H](CCC(=O)O)C(=O)N[C@@H](CCC(=O)O)C(=O)N[C@@H](Cc1ccc(P(=O)(O)O)cc1)C(=O)N[C@@H](CC(C)C)C(=O)N[C@H](CCC(=O)O)C(=O)O [Example 2, H-phe-Oic-Arg-Pro-(Gly)4 -Asn-Gly-Asp-Phe-Glu-Abo-Ile-Pro-(Glu)2 -Phe(pPO3 H2)-Leu-glu-OH] (H-[dF][Oic]RPGGGGNGDFE[X1]IPEE[Phe(4-PO3H2)]L[dE]-OH)",IC50,human thrombin [1],4 nM
same,IC50,human thrombin [2],15 nM
CC[C@H](C)[C@H](NC(=O)[C@H](CCC(=O)O)NC(=O)[C@H](CCC(=O)O)NC(=O)[C@H](Cc1ccccc1)NC(=O)[C@H](CC(=O)O)NC(=O)CNC(=O)[C@H](CC(N)=O)NC(=O)CNC(=O)CNC(=O)CNC(=O)CNC(=O)[C@@H]1CCCN1C(=O)[C@H](CCCNC(=N)N)NC(=O)[C@@H]1CCCN1C(=O)[C@H](N)Cc1ccccc1)C(=O)N1CCC[C@H]1C(=O)N[C@@H](CCC(=O)O)C(=O)N[C@@H](CCC(=O)O)C(=O)N[C@@H](Cc1ccc(O)cc1)C(=O)N[C@@H](CC(C)C)C(=O)O [hirulog-1],IC50,urokinase,> 33000 nM
same,concentration that doubles the ACT,[3],0.2 M
same,IC50,[4],> 33000 nM
same,IC50,[5],> 33000 nM
same,IC50,[6],> 33000 nM
same,Increase in the TT (multiplicative factor),[7]; 1.5 min,13
same,Increase in the TT (multiplicative factor),[7]; 3 min,11
same,Increase in the TT (multiplicative factor),[7]; 5 min,9.8
same,Increase in the TT (multiplicative factor),[7]; 15 min,6.6
same,Increase in the TT (multiplicative factor),[7]; 30 min,4.2
same,Increase in the TT (multiplicative factor),[7]; 60 min,2.2
same,IC50,kallikrein,> 33000 nM
same,Decrease in the weight of the clot in %,male OFA rats; 0.1 mg/kg i.v. 15 minutes before ligation,-0%
same,Decrease in the weight of the clot in %,male OFA rats; 1 mg/kg i.v. 15 minutes before ligation,-46%
same,Increase in the ACT (multiplicative factor),[8]; 1.5 min,3.8
same,Increase in the ACT (multiplicative factor),[8]; 3 min,3.2
same,Increase in the ACT (multiplicative factor),[8]; 5 min,2.6
same,Increase in the ACT (multiplicative factor),[8]; 15 min,2.1
same,Increase in the ACT (multiplicative factor),[8]; 30 min,1.6
same,Increase in the ACT (multiplicative factor),[8]; 60 min,1.3
same,IC50,purified human plasmin,> 33000 nM
same,concentration that doubles the TT,[9],0.07 M

# Source: patent US5786330A, “Peptide compounds which are therapeutically active in the cascade of blood coagulation, process for preparing them and pharmaceutical compositions containing them” (Adir et Compagnie, priority 1993, dated 1998)
